Measurements as given in patent US20230295115A1, “SUBSTITUTED ISOQUINOLINYLMETHYL AMIDES, ANALOGUES THEREOF, AND METHODS USING SAME” (priority 2020, published 2023).
Like-named read-outs stand apart in the source and are kept apart here.

System: HBV rcDNA
Assay: HepDE19 assay with bDNA quantitation of HBV rcDNA
Type: cell-based, hepatitis B virus (HBV)
Procedure, shortened: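 HepDE19 cells were switched to tetracycline-free medium and exposed to compound (0.5% DMSO final) for 7 days at 37° C. rcDNA was then quantified by bDNA with an HBV-specific probe set. In parallel, viability was read as ATP content (CellTiter-Glo) after 4 days on replicate plates.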

[1] = HepDE19 cells, 7 day incubation, rcDNA measured by Quantigene 2.0 bDNA assay, top concentration 25 μM, read-out: DE-19bDNA EC50
[2] = read-out: DE-19bDNA EC50, HepDE19 cells, 7 day incubation, rcDNA measured by Quantigene 2.0 bDNA assay, top concentration 25 μM
[3] = Hepatitis B virus, HepDE19, 168 h, read-out: DE-19bDNA EC50 (μM), HepDE19 cells, 7 day incubation, rcDNA measured by Quantigene 2.0 bDNA assay, top concentration 25 μM
[4] = Hepatitis B virus, HepDE19, 168 h, HepDE19 cells, 7 day incubation, rcDNA measured by Quantigene 2.0 bDNA assay, top concentration 25 μM, read-out: DE-19bDNA EC50

SMILES | EC50 [1] [µM] | also measured
CC(c1c[nH]c(=O)c2cc(F)c(F)cc12)N(C)C(=O)c1ccc2ccn(C)c2c1 (single isomer, unassigned) [Compound 141, N-(1-(6,7-Difluoro-1-oxo-1,2-dihydroisoquinolin-4-yl)ethyl)-N,1-dimethyl-1H-indole-6-carboxamide] | > 25 | –
CC(c1c[nH]c(=O)c2c(F)c(F)ccc12)N(C)C(=O)c1cc2c([nH]1)CCC(F)(F)C2 (single isomer, unassigned) [Compound 91, N-(1-(7,8-Difluoro-1-oxo-1,2-dihydroisoquinolin-4-yl)ethyl)-5,5-difluoro-N-methyl-4,5,6,7-tetrahydro-1H-indole-2-carboxamide] | 7.3 | –
CC(c1cn(C)c(=O)c2cc(F)c(F)cc12)N(C)C(=O)c1ccc(Br)c(F)c1 (single isomer, unassigned) [Compound 161, 4-bromo-N-(1-(6,7-difluoro-2-methyl-1-oxo-1,2-dihydroisoquinolin-4-yl)ethyl)-3-fluoro-N-methylbenzamide] | 3.09 | –
CC(c1cn(C)c(=O)c2cc(F)c(F)cc12)N(C)C(=O)c1ccc(Br)cc1 (single isomer, unassigned) [Compound 167, 4-bromo-N-(1-(6,7-difluoro-2-methyl-1-oxo-1,2-dihydroisoquinolin-4-yl)ethyl)-N-methylbenzamide] | 2.32 | –
COc1ncc(C(C)N(C)C(=O)c2ccc(Br)cc2)c2cc(F)c(F)cc12 (single isomer, unassigned) [Compound 163, 4-Bromo-N-(1-(6,7-difluoro-1-methoxyisoquinolin-4-yl)ethyl)-N-methylbenzamide] | – | EC50 [2]: 0.44 µM
C[C@H](c1c[nH]c(=O)c2c(F)c(F)ccc12)N(C)C(=O)c1cccc(=O)[nH]1 [Compound 87, (R)-N-(1-(7,8-Difluoro-1-oxo-1,2-dihydroisoquinolin-4-yl)ethyl)-N-methyl-6-oxo-1,6-dihydropyridine-2-carboxamide] | – | EC50 [3]: 18 µM
C[C@H](c1c[nH]c(=O)c2ccccc12)N(C)C(=O)c1cc2c(Cl)cccn2c1 [Compound 154, (R)-8-Chloro-N-methyl-N-(1-(1-oxo-1,2-dihydroisoquinolin-4-yl)ethyl)indolizine-2-carboxamide] | – | EC50 [4]: 0.14 µM
COc1ncc(C(C)N(C)C(=O)c2ccc(C(F)(F)F)c(F)c2)c2cc(F)c(F)cc12 (single isomer, unassigned) [Compound 175, N-(1-(6,7-Difluoro-1-methoxyisoquinolin-4-yl)ethyl)-3-fluoro-N-methyl-4-(trifluoromethyl)benzamide] | 24.3 | –
CC(c1c[nH]c(=O)c2cc(F)c(F)cc12)N(C)C(=O)C1Nc2ccccc2C1(C)C (stereo not shown) [Compound 114, N-(1-(6,7-Difluoro-1-oxo-1,2-dihydroisoquinolin-4-yl)ethyl)-N,3,3-trimethylindoline-2-carboxamide] | 16 | –
CC(c1cn(C)c(=O)c2cc(F)c(F)cc12)N(C)C(=O)c1cc2cc(F)c(F)cc2[nH]1 (single isomer, unassigned) [Compound 174, N-(1-(6,7-difluoro-2-methyl-1-oxo-1,2-dihydroisoquinolin-4-yl)ethyl)-5,6-difluoro-N-methyl-1H-indole-2-carboxamide] | 0.05 | –
CC(c1c[nH]c(=O)c2cc(F)c(F)cc12)N(C)C(=O)c1cc2c(F)cccn2c1 (single isomer, unassigned) [Compound 79, N-(1-(6,7-Difluoro-1-oxo-1,2-dihydroisoquinolin-4-yl)ethyl)-8-fluoro-N-methylindolizine-2-carboxamide] | 3.3 | –
CC(c1c[nH]c(=O)c2cc(F)c(F)cc12)N(CCCO)C(=O)c1[nH]c2ccccc2c1Cl (single isomer, unassigned) [Compound 94, 3-Chloro-N-(1-(6,7-difluoro-1-oxo-1,2-dihydroisoquinolin-4-yl)ethyl)-N-(3-hydroxypropyl)-1H-indole-2-carboxamide] | 19 | –
CC(c1c[nH]c(=O)c2cc(F)c(F)cc12)N(C)C(=O)[C@H]1Cc2ccccc2CN1 (single isomer, unassigned) [Compound 33] | 6.6 | –
CC(c1c[nH]c(=O)c2cc(F)c(F)cc12)N(CCCO)C(=O)Cc1cc2ccccc2[nH]1 (single isomer, unassigned) [Compound 83, N-(1-(6,7-Difluoro-1-oxo-1,2-dihydroisoquinolin-4-yl)ethyl)-N-(3-hydroxypropyl)-2-(1H-indol-2-yl)acetamide] | – | EC50 [2]: ≥ 25 µM
CC(c1c[nH]c(=O)c2cc(F)c(F)cc12)N(C)C(=O)c1cc2c([nH]1)CCC(F)(F)C2 (single isomer, unassigned) [Compound 88, N-(1-(6,7-Difluoro-1-oxo-1,2-dihydroisoquinolin-4-yl)ethyl)-5,5-difluoro-N-methyl-4,5,6,7-tetrahydro-1H-indole-2-carboxamide] | 0.03 | –
CC(c1c[nH]c(=O)c2c(F)c(F)ccc12)N(C)C(=O)C1Nc2ccccc2C1(C)C (stereo not shown) [Compound 105, N-(1-(7,8-Difluoro-1-oxo-1,2-dihydroisoquinolin-4-yl)ethyl)-N,3,3-trimethylindoline-2-carboxamide] | ≥ 25 | –

SMILES | EC50 [1] [µM] | also measured
CC(c1c[nH]c(=O)c2cc(F)c(F)cc12)N(C)C(=O)c1cc2c(F)cccn2c1 (single isomer, unassigned) [Compound 80, N-(1-(6,7-Difluoro-1-oxo-1,2-dihydroisoquinolin-4-yl)ethyl)-8-fluoro-N-methylindolizine-2-carboxamide] | 0.02 | –
CC(c1c[nH]c(=O)c2cc(F)c(F)cc12)N(C)C(=O)c1nc2cc(F)c(F)cc2[nH]1 (single isomer, unassigned) [Compound 49, N-(1-(6,7-Difluoro-1-oxo-1,2-dihydroisoquinolin-4-yl)ethyl)-5,6-difluoro-N-methyl-1H-benzo[d]imidazole-2-carboxamide] | 3.1 | –
CC(c1c[nH]c(=O)c2cc(F)c(F)cc12)N(C)C(=O)[C@@H]1Cc2ccccc2N1 (single isomer, unassigned) [Compound 31] | 20 | –
CC(c1c[nH]c(=O)c2cc(F)c(F)cc12)N(C)C(=O)c1ccc(C(F)(F)F)cc1 (single isomer, unassigned) [Compound 129, N-(1-(6,7-Difluoro-1-oxo-1,2-dihydroisoquinolin-4-yl)ethyl)-N-methyl-4-(trifluoromethyl) benzamide] | 6.46 | –
CC(c1c[nH]c(=O)c2cc(F)c(F)cc12)N(C)C(=O)c1cc2c([nH]1)CCC(F)(F)C2 (single isomer, unassigned) [Compound 89, N-(1-(6,7-Difluoro-1-oxo-1,2-dihydroisoquinolin-4-yl)ethyl)-5,5-difluoro-N-methyl-4,5,6,7-tetrahydro-1H-indole-2-carboxamide] | 1.8 | –
CC(c1c[nH]c(=O)c2cc(F)c(F)cc12)N(C)C(=O)[C@@H]1Cc2ccccc2N1 (single isomer, unassigned) [Compound 30] | 0.02 | –
CC(c1c[nH]c(=O)c2cc(F)c(F)cc12)N(C)C(=O)c1cc2ccc(F)cn2c1 (single isomer, unassigned) [Compound 102, N-(1-(6,7-Difluoro-1-oxo-1,2-dihydroisoquinolin-4-yl)ethyl)-6-fluoro-N-methylindolizine-2-carboxamide] | 12 | –
CC(c1c[nH]c(=O)c2c(F)c(F)ccc12)N(C)C(=O)C1Nc2ccccc2C1(C)C (stereo not shown) [Compound 107, N-(1-(7,8-Difluoro-1-oxo-1,2-dihydroisoquinolin-4-yl)ethyl)-N,3,3-trimethylindoline-2-carboxamide] | 16 | –
CC(c1c[nH]c(=O)c2cc(F)c(F)cc12)N(C)C(=O)c1cc2c(Cl)cccn2c1 (single isomer, unassigned) [Compound 77, 8-Chloro-N-(1-(6,7-difluoro-1-oxo-1,2-dihydroisoquinolin-4-yl)ethyl)-N-methylindolizine-2-carboxamide] | 2 | –
C[C@H](c1c[nH]c(=O)c2cc(F)c(F)cc12)N(C)C(=O)c1ccc2cccn2c1 [Compound 185, (R)-N-(1-(6,7-Difluoro-1-oxo-1,2-dihydroisoquinolin-4-yl)ethyl)-N-methylindolizine-6-carboxamide] | – | EC50 [3]: 0.04 µM
C[C@H](c1c[nH]c(=O)c2ccccc12)N(C)C(=O)c1ccc(F)c(Cl)c1 [Compound 149, (R)-3-Chloro-4-fluoro-N-methyl-N-(1-(1-oxo-1,2-dihydroisoquinolin-4-yl)ethyl)benzamide] | – | EC50 [4]: 0.68 µM
CC(c1c[nH]c(=O)c2c(F)c(F)ccc12)N(C)C(=O)C1Cc2cc(F)ccc2N1 (stereo not shown) [Compound 73, N-(1-(7,8-Difluoro-1-oxo-1,2-dihydroisoquinolin-4-yl)ethyl)-5-fluoro-N-methylindoline-2-carboxamide] | 10 | –
CC(c1c[nH]c(=O)c2cc(F)c(F)cc12)N(C)C(=O)c1cc(F)c(F)c(F)c1 (single isomer, unassigned) [Compound 123, N-(1-(6,7-Difluoro-1-oxo-1,2-dihydroisoquinolin-4-yl)ethyl)-3,4,5-trifluoro-N-methylbenzamide] | 22.4 | –
CC(c1c[nH]c(=O)c2cc(F)c(F)cc12)N(C)C(=O)c1ccc(F)c(Cl)c1 (single isomer, unassigned) [Compound 136, 3-Chloro-N-(1-(6,7-difluoro-1-oxo-1,2-dihydroisoquinolin-4-yl)ethyl)-4-fluoro-N-methylbenzamide] | 0.17 | –
CC(c1c[nH]c(=O)c2cc(F)c(F)cc12)N(C)C(=O)c1ccc(F)c(F)c1 (single isomer, unassigned) [Compound 137, N-(1-(6,7-Difluoro-1-oxo-1,2-dihydroisoquinolin-4-yl)ethyl)-3,4-difluoro-N-methylbenzamide] | 22.4 | –
